In patent US11518763B2 (SCOHIA PHARMA, INC., priority 2018, dated 2022):
Where two headings read alike, the source gives them in different places.

Columns and labels:
[1] = molecular target: T1, binding between NRF2 and KEAP1 (biotinylated human KEAP1 protein (Kelch domain), TAMRA-labeled NRF2 peptide) (Homo sapiens, UniProt Q14145); test: Measurement of activity of inhibiting NRF2 binding (NRF2-KEAP1 TR-FRET); conditions: inhibition rate relative to control at 100 nM test compound, TR-FRET, 60 min at room temperature; for inhibition at 0.1 µM: read-out: NRF2 binding inhibitory activity (at 100 nM)
T1 construct: biotinylated human KEAP1 protein (Kelch domain); biotin (biotinylated)
T1 sequence (Q14145 321-609 limits assumed): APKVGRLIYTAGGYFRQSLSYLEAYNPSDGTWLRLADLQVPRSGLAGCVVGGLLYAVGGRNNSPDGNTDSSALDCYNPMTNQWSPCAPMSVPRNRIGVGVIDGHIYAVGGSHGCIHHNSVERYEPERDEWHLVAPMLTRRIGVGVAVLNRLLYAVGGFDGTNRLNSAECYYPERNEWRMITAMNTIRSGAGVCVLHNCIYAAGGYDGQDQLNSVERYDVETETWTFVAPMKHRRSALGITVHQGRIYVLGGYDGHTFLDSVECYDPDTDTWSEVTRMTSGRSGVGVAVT
Experimental: Test Example 1: Measurement of Activity of Inhibiting NRF2 Binding
The inhibitory activity of test compounds against the binding between NRF2 and KEAP1 was measured by Time Resolved Fluorescence Resonance Energy Transfer (TR-FRET) method. Into a 384 well plate, 2 μL of a compound, 2 μL of 2 nM solution of biotinylated human KEAP1 protein (Kelch domain), 2 μL of 14 nM solution of TAMRA-labeled NRF2 peptide (TAMRA-Abu(4)-VWYTDIRMRDWM-OH), and 2 μL of 2 nM solution of Tb-labeled streptavidin, all solutions diluted with assay buffer (25 mM HEPES, pH7.5, 150 mM NaCl, 0.01% Tween-20), were added. For some wells, the KEAP1 protein was not added to define control wells. The plate was incubated at room temperature for 60 minutes, and time-resolved fluorescence was measured with a plate reader Envision (manufactured by PerkinElmer). The inhibitory activity for each compound at a compound concentration of 100 nM were calculated as a relative activity value by setting the fluorescence intensity of control wells to which the KEAP1 protein was not added as 100% inhibition, and the fluorescence intensity of wells to which no compound was added as 0%.
The measurement results according to the method described above (inhibition rate of signal value relative to control at 100 nM of test compound) are shown in Table 3.

[2] = tested on: Nqo1 mRNA; test: Expression of NRF2-downstream gene Nqo1 mRNA in rat kidney and liver after oral administration; type: in vivo; conditions: 17 h, male SD rats, 3 mg/kg oral, about 17 hours after administration, read-out: Nqo1 mRNA expression (fold change vs vehicle)
Experimental: Test Example 2: Activity of Compound on Expression of NRF2-Downstream Gene in Rat Kidney and Liver
For the NRF2-downstream gene, Nqol mRNA was examined in regard to the expression level in kidney. Compounds were prepared into 0.5% methylcellulose (MC, METOLOSE, Shin-Etsu Chemical Co., Ltd.) suspensions, and were orally administered to male SD rats (CLEA Japan, Inc.) in a dose of 5 mL/kg. About 17 hours after the administration, the rats were euthanized under anesthesia, and their kidneys and livers were collected. By using an extraction kit, QIAsymphony RNA kit (QIAGEN, catalog number 931636) or RNeasy 96 Kit (QIAGEN, catalog number 74182), total RNA was extracted. From the total RNA thus obtained, cDNA was produced by using a cDNA synthesis kit, Superscript IV VIVO Master Mix (Thermo Fisher Scientific, catalog number 11754-250). By using the cDNA thus obtained with Taqman Fast Advanced Master Mix (Thermo Fisher Scientific, catalog number 4444557) or Platinum Quantitative PCR SuperMix (Thermo Fisher Scientific, catalog number 11743-500), and primers and a probe, the sequences of SEQ ID NO:1. SEQ ID NO:2, and SEQ ID NO: 3, which are shown in Table 4, real-time quantitative PCR was conducted with 7900HT Fast Real-Time PCR Systems or ViiA7 Fast Real-Time PCR Systems (Applied Biosystems). The expression level of Nqol mRNA in each organ of the rat to which the vehicle, 0.5% MC solution, was administered is defined as 1, and the variation is shown in Table 5.

inhibition at 0.1 µM [1] | NRF2 binding inhibitory activity (at 100 nM) ([1]; 0.1 µM) | SMILES | fold induction at 3 mg/kg ([2]; Kidney) | fold induction at 3 mg/kg ([2]; Liver)
100% |  | Cc1c2ccc3c1nnn3CCCCCc1ccc(c3c1CCO3)C(=O)N1CCc3ccc(cc3C1)C2CC(=O)O (racemic) [Example 7, [33-Methyl-2-oxo-5-oxa-1,15,16,17-tetraazaheptacyclo[22.5.3.2^3,9.1^18,22.0^4,8.0^15,19.0^27,31]pentatriaconta-3,8,16,18(33),19,21,24,26,31,34-decaen-23-yl]acetic acid] | 4.3 | 
100% |  | Cc1c2ccc3c1nnn3CCCCCc1ccc(cc1)C(=O)N1CCc3ccc(cc3C1)C2CC(=O)O (stereo not shown) [Example 11, [32-Methyl-20-oxo-8,9,10,21-tetraazahexacyclo[19.5.3.2^16,19.1^3,7.0^6,10.0^24,28]dotriaconta-1(26),3(32),4,6,8,16,18,24,27,30-decaen-2-yl]acetic acid] | 8 | 
100% |  | Cc1c2ccc3c1nnn3CCCCCc1ccc(c3c1OCC3)C(=O)N1CCc3ccc(cc3C1)C2CC(=O)O (racemic) [Example 4, [33-Methyl-2-oxo-7-oxa-1,15,16,17-tetraazaheptacyclo[22.5.3.2^3,9.1^18,22.0^4,8.0^15,19.0^27,31]pentatriaconta-3,8,16,18(33),19,21,24,26,31,34-decaen-23-yl]acetic acid] | 6.8 | 
 | 100% | Cc1c2ccc3c1nnn3CCCCCc1ccc(cc1)C(=O)N1CCc3ccc(cc3C1)C2C(C)(C)C(=O)O (stereo not shown) [Example 62, 2-methyl-2-[32-methyl-20-oxo-8,9,10,21-tetrazahexacyclo[19.5.3.2^16,19.1^3,7.0^6,10.0^24,28]dotriaconta-1(27),3(32),4,6,8,16(31),17,19(30),24(28),25-decaen-2-yl]propanoic acid] | 6.9 | 
100% |  | Cc1c2ccc3c1nnn3CCCOCc1cc(Cl)c(c(Cl)c1)C(=O)N1CCc3ccc(cc3C1)C2C(C)(C)C(=O)O (stereo not shown) [Example 60, 2-[18,30-dichloro-32-methyl-20-oxo-14-oxa-8,9,10,21-tetrazahexacyclo[19.5.3.2^16-19.1^3,7.0^6,10.0^24,28]dotriaconta-1(27),3(32),4,6,8,16,18,24(28),25,30-decaen-2-yl]-2-methylpropanoic acid] | 2.9 | 
100% |  | Cc1c2ccc3c1nnn3CCCOCc1ccc(c(F)c1)C(=O)N1CCc3ccc(cc3C1)C2CC(=O)O (racemic) [Example 21, [18-Fluoro-32-methyl-20-oxo-14-oxa-8,9,10,21-tetraazahexacyclo[19.5.3.2^16,19.1^3,7.0^6,10.0^24,28]dotriaconta-1(26),3(32),4,6,8,16,18,24,27,30-decaen-2-yl]acetic acid] | 5 | 
100% |  | Cc1cc2cc(C)c1C(=O)N1CCc3ccc(cc3C1)C(C(C)(C)C(=O)O)c1ccc3c(nnn3CCCOC2)c1C (stereo not shown) [Example 58, 2-methyl-2-[18,30,32-trimethyl-20-oxo-14-oxa-8,9,10,21-tetrazahexacyclo[19.5.3.2^16,19.1^3,7.0^6,10.0^24,28]dotriaconta-1(27),3(32),4,6,8,16(31),17,19(30),24(28),25-decaen-2-yl]propanoic acid] | 4.8 | 
100% |  | Cc1c2ccc3c1nnn3CCOCCc1ccc(cc1)C(=O)N1CCc3ccc(cc3C1)C2CC(=O)O (racemic) [Example 29, [32-Methyl-20-oxo-13-oxa-8,9,10,21-tetraazahexacyclo[19.5.3.2^16,19.1^3,7.0^6,10.0^24,28]dotriaconta-1(26),3(32),4,6,8,16,18,24,27,30-decaen-2-yl]acetic acid] | 5.9 | 

SMILES | inhibition at 0.1 µM [1] | NRF2 binding inhibitory activity (at 100 nM) ([1]; 0.1 µM) | fold induction at 3 mg/kg ([2]; Kidney) | fold induction at 3 mg/kg ([2]; Liver)
Cc1c2ccc3c1nnn3CCCOCc1ccc(cc1)C(=O)N1CCc3ccc(cc3C1)C2CC(=O)O (stereo not shown) [Example 25, [32-Methyl-20-oxo-14-oxa-8,9,10,21-tetraazahexacyclo[19.5.3.2^16,19.1^3,7.0^6,10.0^24,28]dotriaconta-1(26),3(32),4,6,8,16,18,24,27,30-decaen-2-yl]acetic acid] | 100% |  | 6.5 | 22.2
